Laboratory results from US11510894B2, “Fast acting inhibitor of gastric acid secretion” (priority 2006, dated 2022).
Where “and” joins values, the source holds several entries; their conditions need not be identical. Equal entries are not always repeated. Entries after “also recorded” stand apart in the source; their conditions may differ.

Columns and labels:
H+, K+-ATPase = test: Intracellular pH recovery in isolated rat fundic (F1) glands; assay type: cell-based; details: for alkalinization rate of F1 glands: 100 μM secretagogue alone
Protocol: Male Sprague Dawley rats weighing 200-300 g were housed in climate and humidity controlled, light cycled rooms and fed standard chow with free access to water. Prior to experiments, animals were fasted while allowing free access to water for 18-24 hours to reduce basal acid secretion. Following isoflurane anesthesia the animals were sacrificed, an abdominal incision was made exposing the stomach. After isolating the esophagus and duodenal junctures a total gastrectomy was performed with 1-2 cm of esophagus remaining attached to the gastrectomy. We included the esophageal juncture to have a common landmark for all fundic isolations. While holding the esophagus with forceps approximately 3 mm of fundus was removed with 5 mm of the intact esophagus. The removed fundic tissue was placed in ice cold HEPES-buffered Ringer-solution (pH adjusted to 7.4 at 4° C.) and transferred to the stage of a dissection microscope. The fundic glands were visualized under the microscope at 50× magnification. Glands adjacent to the esophageal junction were hand dissected. Following isolation, individual glands were adhered to cover slips that had been pretreated with the biological adhesive Cell-Tak (Cell-Tak™ cell adhesive, BD Biosciences; Bedford, Mass.) […] Molecular Probes, OR USA)) for 15 minutes. […] Measurements were performed in the epifluorescence mode with 60×/0.80 and 40×/0.90 objectives. […] Data points were acquired every 15 s. […] Acid extrusion was monitored in the absence of bicarbonate. […] All data are summarized as mean±S.E. Significance was determined using the one-way ANOVA test with p<0.05 considered to be statistically significant. All chemicals used were obtained from Sigma and Molecular Probes.

H+/K+-ATPase [1] = target: T1, H+/K+-ATPase (Rattus norvegicus, UniProt P09626); test: Intracellular pH recovery in rat corpus glands (comparison with fundus); assay type: cell-based
T1 construct: Individual glands were isolated using a hand-dissection technique; from tissue; host or cells: hand-dissected gastric glands of Sprague-Dawley rats (corpus/antrum)
T1 sequence (P09626 whole entry): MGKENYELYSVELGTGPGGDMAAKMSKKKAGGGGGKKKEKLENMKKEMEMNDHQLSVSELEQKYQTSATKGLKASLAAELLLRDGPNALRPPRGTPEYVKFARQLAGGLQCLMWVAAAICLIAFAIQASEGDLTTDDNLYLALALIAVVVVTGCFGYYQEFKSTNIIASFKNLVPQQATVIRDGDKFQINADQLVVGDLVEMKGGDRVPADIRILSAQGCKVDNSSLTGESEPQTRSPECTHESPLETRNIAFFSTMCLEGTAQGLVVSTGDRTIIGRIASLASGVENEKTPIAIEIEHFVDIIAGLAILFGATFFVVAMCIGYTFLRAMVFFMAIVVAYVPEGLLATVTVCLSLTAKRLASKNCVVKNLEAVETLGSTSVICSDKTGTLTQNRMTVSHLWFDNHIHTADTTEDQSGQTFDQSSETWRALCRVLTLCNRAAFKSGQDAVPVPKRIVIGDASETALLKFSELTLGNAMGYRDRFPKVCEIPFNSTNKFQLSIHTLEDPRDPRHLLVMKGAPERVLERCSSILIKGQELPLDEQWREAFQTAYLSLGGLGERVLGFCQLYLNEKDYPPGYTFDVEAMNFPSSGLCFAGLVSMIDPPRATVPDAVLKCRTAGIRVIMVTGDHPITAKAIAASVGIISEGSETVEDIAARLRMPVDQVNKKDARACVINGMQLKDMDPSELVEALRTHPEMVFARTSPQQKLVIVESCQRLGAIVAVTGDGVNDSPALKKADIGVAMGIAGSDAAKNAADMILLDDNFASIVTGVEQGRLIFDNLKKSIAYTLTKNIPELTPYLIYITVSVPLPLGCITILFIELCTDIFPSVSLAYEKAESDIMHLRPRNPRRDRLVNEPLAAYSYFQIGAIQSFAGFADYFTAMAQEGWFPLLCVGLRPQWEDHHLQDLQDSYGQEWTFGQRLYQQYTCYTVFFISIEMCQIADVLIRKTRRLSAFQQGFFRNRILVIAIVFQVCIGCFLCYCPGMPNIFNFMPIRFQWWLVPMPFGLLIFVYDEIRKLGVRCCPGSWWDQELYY
T1 sequence (P18598 whole entry partner): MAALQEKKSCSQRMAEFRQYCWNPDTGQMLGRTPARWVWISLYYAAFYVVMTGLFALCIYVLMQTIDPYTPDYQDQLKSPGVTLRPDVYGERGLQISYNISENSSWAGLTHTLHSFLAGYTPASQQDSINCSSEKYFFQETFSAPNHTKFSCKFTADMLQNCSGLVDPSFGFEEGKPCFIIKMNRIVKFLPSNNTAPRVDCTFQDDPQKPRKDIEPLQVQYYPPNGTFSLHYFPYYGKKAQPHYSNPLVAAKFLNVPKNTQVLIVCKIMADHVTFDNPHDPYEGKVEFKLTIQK
Protocol: Molecular Probes, OR USA)) for 15 minutes. […] Measurements were performed in the epifluorescence mode with 60×/0.80 and 40×/0.90 objectives. […] Data points were acquired every 15 s. […] Acid extrusion was monitored in the absence of bicarbonate. […] All data are summarized as mean±S.E. Significance was determined using the one-way ANOVA test with p<0.05 considered to be statistically significant. All chemicals used were obtained from Sigma and Molecular Probes.

H+/K+-ATPase [2] = target: T1, H+/K+-ATPase; test: Intracellular pH recovery (proton extrusion) in isolated rat gastric glands, NH4Cl prepulse, BCECF; assay type: cell-based
Protocol: Animals. Sprague-Dawley rats 150-250 g (Charles River Laboratory)) were housed in climate- and humidity-controlled, light-cycled rooms, fed standard chow with free access to water, and handled according to the humane practices of animal care established by the Yale Animal Care. Prior to experiments, animals were fasted for 18-24 hours with free access to water.
(§1) Isolation of rat and human gastric Glands. Following removal of the stomach, the stomach was opened longitudinally and the corpus and antrum isolated and sliced into 0.5 cm square sections, and washed with cold Ringer solution to remove residual food particles. The tissues were transferred to the stage of a dissecting microscope. Individual glands were isolated using a hand-dissection technique as described previously^36. Following isolation, individual isolated glands were allowed to adhere to cover slips that had been pre-coated with Cell-Tak (Collaborative Research, Bedford, Mass.) and were transferred to the stage of an inverted microscope.
(§2) Digital imaging for intracellular pH. Isolated gastric glands were incubated in a HEPES-buffered Ringer's solution containing either 10 μmol of the pH-sensitive dye BCECF-AM (2′,7′)-bis-(2-carboxyethyl)-5-(and-6)-carboxy-fluorescin, aceto-methyl ester (Molecular Probes, Eugene, Oreg.) for 10 minutes as described previously^37-39. […] A minimum of 8 cells or regions was selected per gland.
(§3) Proton extrusion by individual parietal cells was monitored by observing recovery of pHi after acid loading the cells with Na^+ free HEPES solution containing 20 mM NH4Cl.
(§4) The recovery rates are expressed as the ΔpH/min, and were calculated over the pH range of 6.5-6.8.

H+/K+-ATPase [3] = target: T1, H+/K+-ATPase; test: Oral zinc supplementation in rats, histamine induced proton extrusion of isolated glands; assay type: in vivo
Protocol: Oral Zinc supplementation in rats. These studies were designed to modulate acid secretion by increasing dietary zinc. In these studies we used an oral ZnCl2 solution (zinc chloride in tap water). The animals had free access to food and the zinc containing water for the duration of the study. […] Animals had free access to water prior to the experiment and were fed with standard chow until 24 hours before the experiment, at which point they had free access to ZnCl2 containing water only. After the 5 days exposure period and the 24 hour fast, the animals were sacrificed and a total gastrectomy was performed on the animals. Individual gastric glands were isolated with the hand dissection technique described above.

[4] = system: histamine induced gastric acid secretion; test: Whole stomach pH measurements, ex vivo rat whole stomach preparation
Protocol: Whole stomach pH measurements. Before the experiments animals were fasted for 24 h to reduce basal acid secretion to a consistent minimum. Animals were killed with an overdose of isoflurane and an abdominal incision was made. The stomach was ligated at the duodenal and esophageal junction and excised. Then 1 ml of non buffered, isotonic saline (140 mM) was infused into the lumen of the stomach. […] The stomachs were then placed in either oxygenated HEPES-buffered Ringer solution or in the same solution containing 100 μM histamine alone or additionally 300 μM ZnCl2 (pH 7.4) and maintained at 37° C. After 1 hour the stomach contents were aspirated and the pH was recorded.

H+/K+-ATPase [5] = target: H+/K+-ATPase (Homo sapiens, UniProt P20648); test: Intracellular pH recovery (proton extrusion) in isolated human gastric glands; assay type: cell-based; details: histamine stimulation
H+/K+-ATPase (Homo sapiens, UniProt P20648), sequence (P20648 whole entry): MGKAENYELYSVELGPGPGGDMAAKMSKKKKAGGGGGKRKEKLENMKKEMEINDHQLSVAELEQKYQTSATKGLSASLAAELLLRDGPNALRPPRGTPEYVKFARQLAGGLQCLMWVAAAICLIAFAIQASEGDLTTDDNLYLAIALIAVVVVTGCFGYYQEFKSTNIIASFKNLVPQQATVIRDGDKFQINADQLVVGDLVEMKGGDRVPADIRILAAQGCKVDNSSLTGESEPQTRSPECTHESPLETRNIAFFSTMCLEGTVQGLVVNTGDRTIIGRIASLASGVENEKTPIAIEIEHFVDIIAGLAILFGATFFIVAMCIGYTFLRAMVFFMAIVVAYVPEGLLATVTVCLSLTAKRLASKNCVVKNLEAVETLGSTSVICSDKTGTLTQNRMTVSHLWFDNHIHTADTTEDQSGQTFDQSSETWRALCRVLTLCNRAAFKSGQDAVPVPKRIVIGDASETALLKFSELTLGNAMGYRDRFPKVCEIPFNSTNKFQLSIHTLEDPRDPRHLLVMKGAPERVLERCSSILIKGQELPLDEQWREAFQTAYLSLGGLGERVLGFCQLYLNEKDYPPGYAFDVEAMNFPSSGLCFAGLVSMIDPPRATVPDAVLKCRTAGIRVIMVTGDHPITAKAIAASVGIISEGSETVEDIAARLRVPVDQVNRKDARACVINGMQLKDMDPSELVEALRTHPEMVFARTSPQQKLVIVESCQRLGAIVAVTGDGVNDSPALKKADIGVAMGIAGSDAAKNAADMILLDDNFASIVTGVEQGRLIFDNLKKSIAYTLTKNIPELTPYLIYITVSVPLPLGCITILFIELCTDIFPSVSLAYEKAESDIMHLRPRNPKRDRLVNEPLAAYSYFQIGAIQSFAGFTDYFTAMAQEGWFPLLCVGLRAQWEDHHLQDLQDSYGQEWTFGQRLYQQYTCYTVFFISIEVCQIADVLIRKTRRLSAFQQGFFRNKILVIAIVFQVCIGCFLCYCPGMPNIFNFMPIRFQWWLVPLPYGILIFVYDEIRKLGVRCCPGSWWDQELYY
H+/K+-ATPase (Homo sapiens, UniProt P20648), sequence (P51164 whole entry partner): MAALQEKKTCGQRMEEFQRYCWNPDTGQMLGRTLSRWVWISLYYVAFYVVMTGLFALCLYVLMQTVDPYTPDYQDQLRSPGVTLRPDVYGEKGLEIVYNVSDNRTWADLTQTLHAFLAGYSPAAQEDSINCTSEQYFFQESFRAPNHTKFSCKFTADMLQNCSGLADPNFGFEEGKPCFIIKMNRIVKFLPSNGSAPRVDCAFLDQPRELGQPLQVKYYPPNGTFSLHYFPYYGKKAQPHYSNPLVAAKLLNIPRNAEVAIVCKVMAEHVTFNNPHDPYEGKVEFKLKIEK
Description: as §1, §2, §3, §4

SMILES: Cc1cccc(C)c1CNc1cc(C(=O)NCCO)cn2c(C)c(C)nc12 [AZD0865]
- inhibition of acid secretion in F1 (fundic) glands, in words (H+, K+-ATPase; omeprazole 200 μM with histamine 100 μM, AZD0865 10 μM): does not completely inhibit proton extrusion
- inhibition of acid secretion in corpus glands, in words (H+/K+-ATPase [1]; omeprazole 200 μM, AZD0865 10 μM): effectively inhibits acid secretion; also recorded: strong inhibition

SMILES: [Cl-].[Cl-].[Zn+2] [ZnCl2, zinc chloride]
- inhibition of proton extrusion compared to the histamine induced rate (H+/K+-ATPase [2]; 300 μM ZnCl2, 100 μM histamine): 98%
- effect on histamine induced proton efflux from gastric glands (H+/K+-ATPase [2]; 300 umol ZnCl2, histamine 100 μM): blocked
- onset of inhibition of histamine induced acid secretion (H+/K+-ATPase [2]; ZnCl2 300 μM added to superfusion bath, histamine 100 μM): abolished after a few seconds
- histamine induced proton extrusion rate after oral ZnCl2 (H+/K+-ATPase [3]; 0.5 mg/kg/d ZnCl2 in drinking water for 5 days): 0.034±0.0036
- histamine induced proton extrusion rate after oral ZnCl2 (H+/K+-ATPase [3]; 150 mg/kg/d ZnCl2 in drinking water for 5 days): 0.022±0.0045
- mean luminal pH ([4]; 100 μM histamine and 300 μM ZnCl2, 1 hour): 4.54±0.065
- whole stomach pH in words ([4]; 100 μmol histamine and 300 μmol ZnCl2): higher pH than those in HEPES-buffered Ringer solution and histamine
- effect on histamine stimulated proton efflux in human gastric glands (H+/K+-ATPase [5]): abolished

SMILES: CC(=O)OCC[N+](C)(C)C [acetylcholine]
- alkalinization rate of F1 glands (H+, K+-ATPase): 0.075±0.0015 ΔpHi/min

SMILES: NCCc1c[nH]cn1 [histamine]
- effect of secretagogue on F1 zone glands in comparison to controls, in words (H+, K+-ATPase; 100 μM): no effect
- alkalinization rate of F1 glands (H+, K+-ATPase): 0.04±0.0079 ΔpHi/min and 0.042±0.007 ΔpHi/min
- recovery rate (proton extrusion) of histamine stimulated parietal cells (H+/K+-ATPase [3]; control group, histamine alone, no zinc): 0.051±0.004
- mean luminal pH ([4]; 100 μM histamine, 1 hour): 3.15±0.27
- histamine stimulated proton extrusion rate in corpus gland (H+/K+-ATPase [1]; 100 μM histamine): 0.056±0.008 ΔpHi/min

SMILES: COc1ccc2[nH]c([S+]([O-])Cc3ncc(C)c(OC)c3C)nc2c1 (centres unmarked) [omeprazole]
- alkalinization rate of fundic glands (H+, K+-ATPase; 200 μM omeprazole and 100 μM histamine): 0.045±0.002 ΔpHi/min
